Measured values as given in patent publication US20110071108A1, “Beta-Cyclodextrin Derivatives as Antibacterial Agents” (Pinnacle Pharmaceuticals, Inc., priority 2005, published 2011).

Experiments:
Experiment in all cases: Bacterial panel testing, MIC by broth microdilution
Format in all cases: cell-based
Settings in all cases: 20-24 hours growth
[1] = tested on: Enterococcus faecium
Method in brief: (§1)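 Read-out: clear (no-growth) wells scored after 20-24 h growth to define compound potency. Inoculum was McFarland-matched bacteria from 2-4 h cultures at 37° C in strain-appropriate Mueller-Hinton or Brain Heart infusion media. Compound (10 μg/ml DMSO stock) was serially diluted twofold across plate columns.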

[2] = tested on: Eschericia coli
Method in brief: as §1

[3] = tested on: Pseudomonas aeruginosa
Method in brief: as §1

[4] = tested on: Salmonella choleraesuis
Method in brief: as §1

[5] = tested on: Staphylococcus aureus
Method in brief: as §1

[6] = tested on: Bacillus atrophaeus
Method in brief: as §1

SMILES | MIC EF [1] | MIC EC [2] | MIC PA [3] | MIC SC [4] | MIC SA [5] | MIC BA [6]
Cl.Cl.Cl.Cl.Cl.Cl.Cl.N[C@@H](CC(=O)OCc1ccccc1)C(=O)NC[C@H]1O[C@@H]2O[C@H]3[C@H](O)[C@@H](O)[C@@H](O[C@H]4[C@H](O)[C@@H](O)[C@@H](O[C@H]5[C@H](O)[C@@H](O)[C@@H](O[C@H]6[C@H](O)[C@@H](O)[C@@H](O[C@H]7[C@H](O)[C@@H](O)[C@@H](O[C@H]8[C@H](O)[C@@H](O)[C@@H](O[C@H]1[C@H](O)[C@H]2O)O[C@@H]8CNC(=O)[C@@H](N)CC(=O)OCc1ccccc1)O[C@@H]7CNC(=O)[C@@H](N)CC(=O)OCc1ccccc1)O[C@@H]6CNC(=O)[C@@H](N)CC(=O)OCc1ccccc1)O[C@@H]5CNC(=O)[C@@H](N)CC(=O)OCc1ccccc1)O[C@@H]4CNC(=O)[C@@H](N)CC(=O)OCc1ccccc1)O[C@@H]3CNC(=O)[C@@H](N)CC(=O)OCc1ccccc1 | >200 µg/mL | >200 µg/mL | >200 µg/mL | >200 µg/mL | >200 µg/mL | –
Cl.Cl.Cl.Cl.Cl.Cl.Cl.N=C(N)NCCCSC[C@H]1O[C@@H]2O[C@H]3[C@H](O)[C@@H](O)[C@@H](O[C@H]4[C@H](O)[C@@H](O)[C@@H](O[C@H]5[C@H](O)[C@@H](O)[C@@H](O[C@H]6[C@H](O)[C@@H](O)[C@@H](O[C@H]7[C@H](O)[C@@H](O)[C@@H](O[C@H]8[C@H](O)[C@@H](O)[C@@H](O[C@H]1[C@H](O)[C@H]2O)O[C@@H]8CSCCCNC(=N)N)O[C@@H]7CSCCCNC(=N)N)O[C@@H]6CSCCCNC(=N)N)O[C@@H]5CSCCCNC(=N)N)O[C@@H]4CSCCCNC(=N)N)O[C@@H]3CSCCCNC(=N)N | >200 µg/mL | >200 µg/mL | >200 µg/mL | >200 µg/mL | >200 µg/mL | –
CCCCCCCCCCCCCCCCNCC1OC2OC3C(CNCCCCCCCCCCCCCCCC)OC(OC4C(CNCCCCCCCCCCCCCCCC)OC(OC5C(CNCCCCCCCCCCCCCCCC)OC(OC6C(CNCCCCCCCCCCCCCCCC)OC(OC7C(CNCCCCCCCCCCCCCCCC)OC(OC8C(CNCCCCCCCCCCCCCCCC)OC(OC1C(O)C2O)C(O)C8O)C(O)C7O)C(O)C6O)C(O)C5O)C(O)C4O)C(O)C3O (stereo not drawn) | >200 µg/mL | >200 µg/mL | >200 µg/mL | >200 µg/mL | – | >200 µg/mL
CC(C)NCC1OC2OC3C(CNC(C)C)OC(OC4C(CNC(C)C)OC(OC5C(CNC(C)C)OC(OC6C(CNC(C)C)OC(OC7C(CNC(C)C)OC(OC8C(CNC(C)C)OC(OC1C(O)C2O)C(O)C8O)C(O)C7O)C(O)C6O)C(O)C5O)C(O)C4O)C(O)C3O (stereo not drawn) | >200 µg/mL | >200 µg/mL | >200 µg/mL | >200 µg/mL | >200 µg/mL | –
C[C@H](N)C(=O)NC[C@H]1O[C@@H]2O[C@H]3[C@H](O)[C@@H](O)[C@@H](O[C@H]4[C@H](O)[C@@H](O)[C@@H](O[C@H]5[C@H](O)[C@@H](O)[C@@H](O[C@H]6[C@H](O)[C@@H](O)[C@@H](O[C@H]7[C@H](O)[C@@H](O)[C@@H](O[C@H]8[C@H](O)[C@@H](O)[C@@H](O[C@H]1[C@H](O)[C@H]2O)O[C@@H]8CNC(=O)[C@H](C)N)O[C@@H]7CNC(=O)[C@H](C)N)O[C@@H]6CNC(=O)[C@H](C)N)O[C@@H]5CNC(=O)[C@H](C)N)O[C@@H]4CNC(=O)[C@H](C)N)O[C@@H]3CNC(=O)[C@H](C)N.Cl.Cl.Cl.Cl.Cl.Cl.Cl | >200 µg/mL | >200 µg/mL | >200 µg/mL | >200 µg/mL | >200 µg/mL | –
Cl.Cl.Cl.Cl.Cl.Cl.Cl.NC(CCC(=O)OCc1ccccc1)C(=O)NCC1OC2OC3C(CNC(=O)C(N)CCC(=O)OCc4ccccc4)OC(OC4C(CNC(=O)C(N)CCC(=O)OCc5ccccc5)OC(OC5C(CNC(=O)C(N)CCC(=O)OCc6ccccc6)OC(OC6C(CNC(=O)C(N)CCC(=O)OCc7ccccc7)OC(OC7C(CNC(=O)C(N)CCC(=O)OCc8ccccc8)OC(OC8C(CNC(=O)C(N)CCC(=O)OCc9ccccc9)OC(OC1C(O)C2O)C(O)C8O)C(O)C7O)C(O)C6O)C(O)C5O)C(O)C4O)C(O)C3O (stereo not drawn) | >200 µg/mL | >200 µg/mL | >200 µg/mL | >200 µg/mL | >200 µg/mL | –
C=CCNCC1OC2OC3C(CNCC=C)OC(OC4C(CNCC=C)OC(OC5C(CNCC=C)OC(OC6C(CNCC=C)OC(OC7C(CNCC=C)OC(OC8C(CNCC=C)OC(OC1C(O)C2O)C(O)C8O)C(O)C7O)C(O)C6O)C(O)C5O)C(O)C4O)C(O)C3O (stereo not drawn) | >200 µg/mL | >200 µg/mL | >200 µg/mL | >200 µg/mL | >200 µg/mL | –
CC(CCN)CCSCC1OC2OC3C(CSCCC(C)CCN)OC(OC4C(CSCCC(C)CCN)OC(OC5C(CSCCC(C)CCN)OC(OC6C(CSCCC(C)CCN)OC(OC7C(CSCCC(C)CCN)OC(OC8C(CSCCC(C)CCN)OC(OC1C(O)C2O)C(O)C8O)C(O)C7O)C(O)C6O)C(O)C5O)C(O)C4O)C(O)C3O.Cl.Cl.Cl.Cl.Cl.Cl.Cl (stereo not drawn) | >100 µg/mL | >100 µg/mL | >100 µg/mL | >100 µg/mL | >100 µg/mL | –
Cl.Cl.Cl.Cl.Cl.Cl.Cl.NC(CS)C(=O)NCC1OC2OC3C(CNC(=O)C(N)CS)OC(OC4C(CNC(=O)C(N)CS)OC(OC5C(CNC(=O)C(N)CS)OC(OC6C(CNC(=O)C(N)CS)OC(OC7C(CNC(=O)C(N)CS)OC(OC8C(CNC(=O)C(N)CS)OC(OC1C(O)C2O)C(O)C8O)C(O)C7O)C(O)C6O)C(O)C5O)C(O)C4O)C(O)C3O (stereo not drawn) | >200 µg/mL | >200 µg/mL | >200 µg/mL | >200 µg/mL | >200 µg/mL | –
Cl.Cl.Cl.Cl.Cl.Cl.Cl.O=C(CNCc1ccccc1)NCC1OC2OC3C(CNC(=O)CNCc4ccccc4)OC(OC4C(CNC(=O)CNCc5ccccc5)OC(OC5C(CNC(=O)CNCc6ccccc6)OC(OC6C(CNC(=O)CNCc7ccccc7)OC(OC7C(CNC(=O)CNCc8ccccc8)OC(OC8C(CNC(=O)CNCc9ccccc9)OC(OC1C(O)C2O)C(O)C8O)C(O)C7O)C(O)C6O)C(O)C5O)C(O)C4O)C(O)C3O (stereo not drawn) | >200 µg/mL | >200 µg/mL | >200 µg/mL | >200 µg/mL | >200 µg/mL | –
CN(C)CCNCC(=O)NCC1OC2OC3C(CNC(=O)CNCCN(C)C)OC(OC4C(CNC(=O)CNCCN(C)C)OC(OC5C(CNC(=O)CNCCN(C)C)OC(OC6C(CNC(=O)CNCCN(C)C)OC(OC7C(CNC(=O)CNCCN(C)C)OC(OC8C(CNC(=O)CNCCN(C)C)OC(OC1C(O)C2O)C(O)C8O)C(O)C7O)C(O)C6O)C(O)C5O)C(O)C4O)C(O)C3O.Cl.Cl.Cl.Cl.Cl.Cl.Cl (stereo not drawn) | >200 µg/mL | >200 µg/mL | – | >200 µg/mL | >200 µg/mL | >200 µg/mL
OC1C2OC(CNc3nc4ccccc4[nH]3)C(OC3OC(CNc4nc5ccccc5[nH]4)C(OC4OC(CNc5nc6ccccc6[nH]5)C(OC5OC(CNc6nc7ccccc7[nH]6)C(OC6OC(CNc7nc8ccccc8[nH]7)C(OC7OC(CNc8nc9ccccc9[nH]8)C(OC8OC(CNc9nc%10ccccc%10[nH]9)C(O2)C(O)C8O)C(O)C7O)C(O)C6O)C(O)C5O)C(O)C4O)C(O)C3O)C1O (stereo not drawn) | >200 µg/mL | >200 µg/mL | >200 µg/mL | >200 µg/mL | >200 µg/mL | –
O=C(C[n+]1ccccc1)NCC1OC2OC3C(CNC(=O)C[n+]4ccccc4)OC(OC4C(CNC(=O)C[n+]5ccccc5)OC(OC5C(CNC(=O)C[n+]6ccccc6)OC(OC6C(CNC(=O)C[n+]7ccccc7)OC(OC7C(CNC(=O)C[n+]8ccccc8)OC(OC8C(CNC(=O)C[n+]9ccccc9)OC(OC1C(O)C2O)C(O)C8O)C(O)C7O)C(O)C6O)C(O)C5O)C(O)C4O)C(O)C3O.[Cl-].[Cl-].[Cl-].[Cl-].[Cl-].[Cl-].[Cl-] (stereo not drawn) | >200 µg/mL | >200 µg/mL | >200 µg/mL | >200 µg/mL | >200 µg/mL | –
CCCCCCCCCCCCNCC1OC2OC3C(CNCCCCCCCCCCCC)OC(OC4C(CNCCCCCCCCCCCC)OC(OC5C(CNCCCCCCCCCCCC)OC(OC6C(CNCCCCCCCCCCCC)OC(OC7C(CNCCCCCCCCCCCC)OC(OC8C(CNCCCCCCCCCCCC)OC(OC1C(O)C2O)C(O)C8O)C(O)C7O)C(O)C6O)C(O)C5O)C(O)C4O)C(O)C3O (stereo not drawn) | >200 µg/mL | >200 µg/mL | >200 µg/mL | >200 µg/mL | – | >200 µg/mL
Cl.Cl.Cl.Cl.Cl.Cl.Cl.N=C(N)NCCCCSCC1OC2OC3C(CSCCCCNC(=N)N)OC(OC4C(CSCCCCNC(=N)N)OC(OC5C(CSCCCCNC(=N)N)OC(OC6C(CSCCCCNC(=N)N)OC(OC7C(CSCCCCNC(=N)N)OC(OC8C(CSCCCCNC(=N)N)OC(OC1C(O)C2O)C(O)C8O)C(O)C7O)C(O)C6O)C(O)C5O)C(O)C4O)C(O)C3O (stereo not drawn) | >200 µg/mL | >200 µg/mL | >200 µg/mL | >200 µg/mL | >200 µg/mL | –
